ChEMBL document CHEMBL5608235, “Tricyclic Benzo[1,3]oxazinyloxazolidinones as Potent Antibacterial Agents against Drug-Resistant Pathogens” (J Med Chem, 2024)
≈ marks a conversion by molar mass, not a printed value. Calls of active or inactive are those of the source. The rule behind the calls is not given here.

Columns and labels:
[1] = test system: Staphylococcus aureus; experiment: Antibacterial activity against vancomycin intermediate Staphylococcus aureus ATCC700699 assessed as inhibition of bacterial growth incubated for 7 days by alamar blue assay; format: functional; details: ATCC700699, 168 h, time 7 day
[2] = test system: Staphylococcus epidermidis; experiment: Antibacterial activity against Staphylococcus epidermidis ATCC12228 assessed as inhibition of bacterial growth incubated for 18 hrs by microdilution broth assay; format: functional
[3] = test system: Mycobacterium tuberculosis; experiment: Antibacterial activity against Mycobacterium tuberculosis H37Rv assessed as inhibition of bacterial growth incubated for 7 days by alamar blue assay; format: functional; details: 168 h, time 7 day
[4] = test system: Cell membrane; experiment: Disruption of cell membrane integrity in Staphylococcus aureus ATCC 25923 assessed as increase in red fluorescence at 1 ug/ml incubated for 1 hr by […] and propidium iodide double staining based confocal microscopic analysis; format: cell membranes; details: dose 1.0 µg/ml
[5] = Tmax in BALB/c mouse at 10 mg/kg,po administration measured upto 24 hrs by LC-MS/MS analysis; format: ADME, organism-based; details: in vivo
[6] = MRT (0 to infinity) in BALB/c mouse at 10 mg/kg,po administration measured upto 24 hrs by LC-MS/MS analysis; format: ADME, organism-based; details: in vivo
[7] = MRT (0 to infinity) in BALB/c mouse at 1 mg/kg,iv administration measured upto 24 hrs by LC-MS/MS analysis; format: ADME, organism-based; details: in vivo
[8] = test system: Staphylococcus aureus; experiment: (§1) Antibacterial activity against methicillin resistant Staphylococcus aureus ATCC 33592 infected in cyclophosphamide-induced immunosuppressed Kunming mouse assessed as reduction in congestion in spleen at 10 mg/kg,po administration measured after 24 hrs by hematoxylin and eosin staining based microscopy; format: functional, organism-based
[9] = Metabolic stability in ICR mouse liver microsomes assessed as compound remaining at 10 uM incubated for 60 mins in absence of NADPH by LC-MS/MS analysis; format: ADME, Microsome; details: read-out: Stability
[10] = Clearance in BALB/c mouse at 1 mg/kg,iv administration measured upto 24 hrs by LC-MS/MS analysis; format: ADME, organism-based; details: in vivo
[11] = test system: Staphylococcus aureus; experiment: as §1, with “histopathological change” for “congestion”, “lung” for “spleen”, “25 to 50” for “10”; format: functional, organism-based; details: dose 25-50 mg/kg
[12] = test system: Enterococcus faecalis; experiment: Antibacterial activity against Enterococcus faecalis ATCC29212 assessed as inhibition of bacterial growth incubated for 18 hrs by microdilution broth assay; format: functional
[13] = test system: Staphylococcus aureus; experiment: Antibacterial activity against Linezolid resistant Staphylococcus aureus clinical isolate 20-1 assessed as inhibition of bacterial growth incubated for 7 days by alamar blue assay; format: functional; details: clinical isolate 20-1, 168 h, time 7 day
[14] = test system: Staphylococcus aureus; experiment: Antibacterial activity against Linezolid resistant Staphylococcus aureus assessed as inhibition of bacterial growth incubated for 7 days by alamar blue assay; format: functional; details: 168 h, time 7 day
[15] = test system: Staphylococcus aureus; experiment: as §1, with “inflammatory cell infiltration” for “congestion”, “kidney” for “spleen”, “50” for “10”; format: functional, organism-based
[16] = test system: Staphylococcus epidermidis; experiment: Antibacterial activity against methicillin resistant Staphylococcus epidermidis clinical isolate 20-2 assessed as inhibition of bacterial growth incubated for 7 days by alamar blue assay; format: functional; details: clinical isolate 20-2, 168 h, time 7 day
[17] = MRT (0 to t) in BALB/c mouse at 1 mg/kg,iv administration measured upto 24 hrs by LC-MS/MS analysis; format: ADME, organism-based; details: in vivo
[18] = AUC (0 to t) in BALB/c mouse at 1 mg/kg,iv administration measured upto 24 hrs by LC-MS/MS analysis; format: ADME, organism-based; details: in vivo
[19] = Cmax in BALB/c mouse at 1 mg/kg,iv administration measured upto 24 hrs by LC-MS/MS analysis; format: ADME, organism-based; details: in vivo
[20] = test system: Staphylococcus aureus; experiment: Antibacterial activity against methicillin resistant Staphylococcus aureus clinical isolate 20-2 assessed as inhibition of bacterial growth incubated for 7 days by alamar blue assay; format: functional; details: clinical isolate 20-2, 168 h, time 7 day
[21] = Terminal half life in BALB/c mouse at 10 mg/kg,po administration measured upto 24 hrs by LC-MS/MS analysis; format: ADME, organism-based; details: in vivo, read-out: beta t1/2 (converted)
[22] = test system: Staphylococcus aureus; experiment: Antibacterial activity against vancomycin resistant Staphylococcus aureus assessed as inhibition of bacterial growth incubated for 7 days by alamar blue assay; format: functional; details: 168 h, time 7 day
[23] = test system: Staphylococcus aureus; experiment: Bacteriostatic activity against methicillin resistant Staphylococcus aureus ATCC 33592 at 4 times MIC incubated for 2 to 24 hrs by time-kill assay; format: functional, organism-based; details: time 2-24 hrs
[24] = test system: Staphylococcus aureus; experiment: Antibacterial activity against Linezolid resistant Staphylococcus aureus clinical isolate 20-2 assessed as inhibition of bacterial growth incubated for 7 days by alamar blue assay; format: functional; details: clinical isolate 20-2, 168 h, time 7 day
[25] = test system: Staphylococcus aureus; experiment: Inhibition of protein synthesis in Staphylococcus aureus ATCC 29213 by translation assay; format: functional, organism-based
[26] = test system: Enterococcus faecalis; experiment: Antibacterial activity against Linezolid resistant Enterococcus faecalis clinical isolate 20-1 assessed as inhibition of bacterial growth incubated for 7 days by alamar blue assay; format: functional; details: clinical isolate 20-1, 168 h, time 7 day
[27] = test system: Staphylococcus aureus; experiment: as §1, with “pigment deposition” for “congestion”, “50” for “10”; format: functional, organism-based
[28] = test system: Staphylococcus aureus; experiment: Inhibition of biofilm formation in Staphylococcus aureus ATCC 29213 at 1 to 10 ug/ml incubated for 48 hrs by crystal violet staining based assay; format: functional, organism-based; details: dose 1-10 µg/ml
[29] = test system: Staphylococcus aureus; experiment: as §1, with “bacterial load” for “congestion”, “10 to 50” for “10”; format: functional, organism-based; details: dose 10-50 mg/kg
[30] = Metabolic stability in human liver microsomes assessed as compound remaining at 10 uM incubated for 60 mins in absence of NADPH by LC-MS/MS analysis; format: ADME, Microsome; details: read-out: Stability
[31] = test system: Staphylococcus aureus; experiment: Induction of resistant development in methicillin resistant Staphylococcus aureus ATCC 33592 assessed as fold increase in MIC at 0.5 to 4 ug/ml measured after 30 serial passages by broth microdilution analysis; format: functional; details: dose 0.5-4 µg/ml
[32] = test system: Staphylococcus aureus; experiment: Antibacterial activity against methicillin resistant Staphylococcus aureus ATCC 33592 infected in cyclophosphamide-induced immunosuppressed Kunming mouse assessed as decrease in IL-1beta level at po administration measured after 24 hrs by ELISA; format: functional, organism-based
[33] = test system: Cell membrane; experiment: Disruption of cell membrane integrity in methicillin resistant Staphylococcus aureus ATCC 33592 assessed as increase in blue fluorescence at 1 ug/ml incubated for 1 hr by […] and propidium iodide double staining based confocal microscopic analysis; format: cell membranes; details: dose 1.0 µg/ml
[34] = test system: Staphylococcus aureus; experiment: as §1, with “bacterial load” for “congestion”, “kidney” for “spleen”, “25 to 50” for “10”; format: functional, organism-based; details: dose 25-50 mg/kg
[35] = test system: Cell membrane; experiment: Disruption of cell membrane integrity in methicillin resistant Staphylococcus aureus ATCC 33592 assessed as increase in red fluorescence at 1 ug/ml incubated for 1 hr by […] and propidium iodide double staining based confocal microscopic analysis; format: cell membranes; details: dose 1.0 µg/ml
[36] = test system: Cell membrane; experiment: Disruption of cell membrane integrity in methicillin resistant Staphylococcus aureus ATCC 33592 assessed as increase in blue fluorescence at 0.5 ug/ml incubated for 1 hr by […] and propidium iodide double staining based confocal microscopic analysis; format: cell membranes; details: dose 0.5 µg/ml
[37] = Oral bioavailability in BALB/c mouse at 10 mg/kg administration measured upto 24 hrs by LC-MS/MS analysis; format: ADME, organism-based; details: BALB/c, in vivo

With `CC(=O)NC[C@@H]1OC(=O)N2Cc3cc(-c4ccc(C#N)cc4)c(F)cc3O[C@@H]12` the MIC [1] was 0.5 µg/mL (≈ 1.31 µM), the MIC [2] was 0.032 µg/mL (≈ 0.0839 µM) and the MIC [3] was 0.52 µg/mL (≈ 1.36 µM). The Activity [4] was “Active”, the Tmax [5] was 2 h and the MRT inf [6] was 17.3 h. For the same compound, the MRT inf [7] was 6.7 h, the Activity [8] was “Active” and the remaining at 1 h, 10 µM [9] was 101%. The clearance [10] was 2.92 mL/min/kg, the Activity [11] was “Active” and the MIC [12] was 1 µg/mL (≈ 2.62 µM). The MIC [13] was 8 µg/mL (≈ 21 µM), the MIC [14] was 2 µg/mL (≈ 5.24 µM) and the Activity [15] was “Active”. For the same compound, the MIC [16] was 0.06 µg/mL (≈ 0.157 µM), the MRT last at 24 h [17] was 6.6 h and the AUC(0-t) at 24 h [18] was 5120 ng·h/mL. For the same compound, the Cmax [19] was 814 ng/mL, the MIC [20] was 0.5 µg/mL (≈ 1.31 µM) and the half-life [21] was 11.9 h. For the same compound, the MIC [22] was 1 µg/mL (≈ 2.62 µM), the Activity [23] was “Active” and the MIC [24] was 8 µg/mL (≈ 21 µM). The IC50 [25] was 1.5 µg/mL (≈ 3.93 µM), the MIC [26] was 1 µg/mL (≈ 2.62 µM) and the Activity [27] was “Active”. For the same compound, the inhibition [28] was “Active”, the Activity [29] was “Active” and the remaining at 1 h, 10 µM [30] was 120%. The fold change (FC) [31] was 8, the Activity [32] was “Dose-Dependent Effect” and the Activity [33] was “Active”. For the same compound, the Activity [34] was “Active”, the Activity [35] was “Active” and the Activity [36] was “Active”. For the same compound, the bioavailability [37] was 122%.
